Key:
RANKL = RANKL mRNA in purified mammary epithelial cells by qRT-PCR after MPA pellet implantation; format: in vivo, mouse
Experimental: a,b, Induction of RANKL expression by the progesterone-derivative MPA. Nulliparous wild type females were s.c. implanted with slow-release MPA pellets or treated with surgery sham. a, RANKL mRNA was determined in purified mammary epithelial cells by qRT-PCR three days after implantation. Data are shown as fold change compared to sham treatment (+/−sem) (n=3). b, In situ […] immunostaining of progesterone receptor (PR, red) and RANKL (green) in mammary epithelial cells after 3d MPA treatment. c, Induction of soluble RANKL protein assayed on isolated mammary gland epithelial cells from control, but not in prolactin receptor mutant (PRL-R KO) females on day 3 after s.c. MPA implantation. Mammary glands from sham operated control litter-mates and PRL-R KO females are shown as controls. d, Epithelial proliferation in mammary glands of control littermates and RANK^Δmam females 3 days after sham treatment and MPA implantation. Proliferation was determined by in situ Ki67 immunostaining. e,f, Marked increase of the stem cell-enriched CD24^+CD49^high population (MaSC) in MPA-treated mammary glands in control but not in RANK^Δmam mammary glands. e, Representative FACS profiles showing CD24 and CD49 expression of lineage negative (CD31^− (endothelial cells) CD45^− (hematopoietic cells) […] (erythroid cells)) of mammary MaSCs from MPA- or sham-treated 8-week old virgin females. f, Quantification of MaSC-enriched CD24^+CD49^high population from mammary glands of MPA- or sham-treated virgin RANK^Δmam and littermate control females. For all MaSCs experiments mice were treated with MPA for 3 days. n=4 per group+/−sem. *P<0.05; ***P<0.001 (Student's t-test).
a-d, Induction of RANKL expression by the progesterone-derivative MPA. […] Numbers indicate amino acid residues. c, Expression of total (t) RANKL, RANKL1, RANKL2, and RANKL3 mRNA in purified mammary epithelial cells after three days MPA treatment. β-actin is shown as a control. d, Representative agarose gel of RT-PCR products as in c. e, mRNA expression of various proteases known to shed RANKL from the surface of cells. mRNA was determined in purified mammary epithelial cells by qRT-PCR three days after MPA implantation. […]
a,b, MPA induces RANKL expression in mammary epithelial cells. Nulliparous wild type females were treated with oral gavage of DMBA or oil vehicle, s.c. implanted with slow-release MPA pellets, or treated with sham surgery. a, RANKL mRNA was determined in purified mammary epithelial cells by qRT-PCR 3 days after implantation/oral gavage. […]

[1] = tested on: SKBR3 human breast cancer cells; test: DNA damage responses (cell cycle arrest, apoptosis) in SKBR3 cells; format: cell-based; conditions: RANKL 1 μg/ml
Experimental: a, Western Blot analysis for γH2AX, phosphorylated (P) Chk1, total Chk1, p53 and β-actin in isolated primary mouse mammary gland epithelial cells in response to γ-irradiation (2 Gray) in the presence (1 μg/ml) or absence of RANKL stimulation. b,c, FACS analysis of propidium iodide (PI) stained b, mammary epithelial cells and c, SKBR3 human breast cancer cells after γ-irradiation (2 Gray) in the absence or presence (1 μg/ml) of RANKL. Data are representative of at least 3 experiments. Apoptotic cells with a DNA content <2n appear in the sub-G1 region. Percent of cells in sub-G1 (M1), G1-phase (M2), S/G2/M-phase (M3) as well as polyploid cells with a DNA content >4n are given for the indicated time points.
a,b, FACS analysis of a, mammary epithelial cells and b, SKBR3 human breast cancer cells incubated with the genotoxic agent doxorubicin (Dox, 1 μM) in the presence (1 μg/ml) or absence of RANKL. Data are representative of at least 3 experiments. Percent of cells in sub-G1 (M1), G1-phase (M2), S/G2/M-phase (M3) as well as polyploid cells with a DNA content >4n are given for 24 and 36 hours after doxorubicin treatment. c, mRNA expression of pro-apoptotic genes Bim, Puma, and Noxa 6 hours after γ-irradiation (2 Gray) in the presence (1 μg/ml) or absence of RANKL stimulation. Data are shown as fold change compared to control (+/−sem). n=3). *P<0.05; **P<0.005 (Student's t-test).
For measurement of cell cycle arrest and apoptosis primary mouse mammary epithelial cells and SKBR3 human breast cancer cells were seeded at a cell-density of 100000 cells/well in a 6-well plate and allowed to grow for 24 hours. Cells where then treated with doxorubicin (1 μM) or γ-irradiation (2 Gray) in the absence or presence of recombinant RANKL (1 μg/ml). Cell cycle arrest and numbers of dead cells were determined using propidium iodine staining. To determine in vivo mammary gland epithelial cell death, control and RANK^Δmam littermate females were γ-irradiated with a total dose of 5 Gray (Gy). Six hours later, mammary glands were isolated and immunostained for active Caspase 3 (Cell Signaling) indicative of apoptosis.

CC(=O)O[C@]1(C(C)=O)CC[C@H]2[C@@H]3C[C@H](C)C4=CC(=O)CC[C@]4(C)[C@H]3CC[C@@]21C [MPA, medroxyprogesterone acetate]
mRNA of proteases known to shed RANKL (MMP14, ADAM17/TACE) (RANKL; 3 days after MPA implantation, qRT-PCR): induction of MMP14 and ADAM17/TACE | RANKL mRNA and protein expression in purified mammary epithelial cells (RANKL; 3 days after implantation/oral gavage, qRT-PCR and Western blot): induced RANKL mRNA and protein expression | mRNA expression of RANK, OPG, PTHrP and TRAIL in isolated mammary epithelial cells (RANKL; MPA pellets implanted): not changed | induction of RANKL mRNA in isolated mammary epithelial cells (RANKL; s.c. slow-release MPA pellets, 3 days, vs sham, wild type females): more than 2000 fold

B1: RANKL: recombinant RANKL protein, ligand of RANK, used as stimulus (1 μg/ml or 1 μg i.p.) (protein, UniProt O35235 139-316, looked up)
Tumor necrosis factor ligand …: FSGAPAMMEGSWLDVAQRGKPEAQPFAHLTINAASIPSGSHKVTLSSWYHDRGWAKISNMTLSNGKLRVNQDGFYYLYANICFRHHETSGSVPTDYLQLMVYVVKTSIKIPSSHNLMKGGSTKNWSGNSEFHFYSINVGGFFKLRAGEEISIQVSNPSLLDPDQDATYFGAFKVQDID
early cell cycle arrest after DNA damage ([1]; doxorubicin 1 μM): did not alter the early cell cycle arrest | protection from cell death ([1]; doxorubicin 1 μM): marked protection from cell death | early cell cycle arrest after DNA damage ([1]; γ-irradiation 2 Gray): did not alter the early cell cycle arrest | protection from cell death ([1]; γ-irradiation 2 Gray): marked protection from cell death
